Test systems include A549; CAKI-1; DMS-273; EKVX; HCC 2998; HCT-15; HOP-92; LOX IMVI; M14; NCI-H460; OVCAR-3; OVCAR-5; RXF 393; SK-MEL-2; SNB-75; U-251; BT-549; Hs-578T; PC-3; MCF7.
Common to all, as to assay: inhibition of tumour cell growth, NCI panel, 48 h

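Five concentrations, 48 hours, 96-well plates. Abbreviation: GI50, concentration required for 50% inhibition of growth.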 The source made the active and inactive calls. Rule as the data show it: active = GI50 up to about 1.1 µM and inactive = higher. Bounds are passed on as bounds.

For the compound `C1OC1CO[C@@H]1CO[C@H]2[C@@H]1OC[C@H]2OCC1CO1` (some centres not stated), the GI50 with A549 is > 100 µM (inactive); in the experiment with CAKI-1 it was 67.9 µM (inactive); with DMS-273, > 100 µM (inactive); with EKVX, > 100 µM (inactive); in the experiment on HCC 2998, > 100 µM (inactive); with HCT-15, more than 100 µM. For the same compound, the GI50 is > 100 µM (inactive) in the experiment on HOP-92; > 100 µM (inactive) with LOX IMVI; > 100 µM (inactive) in the experiment on M14; 61.7 µM (inactive) with NCI-H460; > 100 µM (inactive) in the experiment with OVCAR-3; > 100 µM (inactive) with OVCAR-5. Further, the GI50 in the experiment with RXF 393, with SK-MEL-2, in the experiment with SNB-75 and in the experiment on U-251 was > 100 µM (inactive) each time.
With `O=C(/C=C/c1cc(Cl)cc(Cl)c1O)c1cccc(O)c1`, the GI50 in the experiment with A549 was > 100 µM (inactive); in the experiment on CAKI-1 it was > 100 µM (inactive); with DMS-273, 54.2 µM (inactive); in the experiment on EKVX, 36.3 µM (inactive); in the experiment with HCC 2998 it was 85.3 µM (inactive); in the experiment with HCT-15 it was 41.5 µM. Besides, the GI50 is 27.8 µM (inactive) with HOP-92; 12.6 µM (inactive) in the experiment with LOX IMVI; 29.5 µM (inactive) with M14; > 100 µM (inactive) with NCI-H460; 28.4 µM (inactive) in the experiment on OVCAR-3; 15 µM (inactive) with OVCAR-5. For the same compound, the GI50 with RXF 393 is > 100 µM (inactive); in the experiment on SK-MEL-2, 26.2 µM (inactive); in the experiment on SNB-75, 36 µM (inactive); in the experiment with U-251, 25.5 µM (inactive).
As for `O=C1N[C@@H](O)[C@@H]2ON=C(c3ccccc3)[C@H]12`, the GI50 in the experiment with A549 is > 100 µM (inactive); with CAKI-1, > 100 µM (inactive); in the experiment on DMS-273, > 100 µM (inactive); in the experiment on EKVX, > 100 µM (inactive); in the experiment on HCC 2998 it was > 100 µM (inactive); with HCT-15, more than 100 µM. The GI50 with HOP-92, in the experiment with LOX IMVI, with M14, with NCI-H460, with OVCAR-3 and in the experiment with OVCAR-5 was > 100 µM (inactive) throughout. The GI50 in the experiment on RXF 393, in the experiment with SK-MEL-2, in the experiment with SNB-75 and in the experiment with U-251 was > 100 µM (inactive) in each case.
In the case of `O=C(c1ccc(Cl)cc1)C1OC12C(=O)Nc1ccccc12` (configuration not stated), the GI50 in the experiment with A549 is 23.9 µM (inactive); in the experiment with BT-549, 6.93 µM (inactive); in the experiment with CAKI-1 it was 6.71 µM (inactive); in the experiment with DMS-273, 12.7 µM (inactive); in the experiment with EKVX it was 18.1 µM (inactive); with HCC 2998, 19.9 µM (inactive). Moreover, the GI50 in the experiment on HCT-15 was 4.74 µM; with HOP-92, 10.8 µM (inactive); in the experiment on Hs-578T, 16.5 µM (inactive); in the experiment on LOX IMVI, 1.45 µM (inactive); in the experiment with M14, 6.18 µM (inactive); with NCI-H460, 18.5 µM (inactive). In addition, the GI50 was 24.6 µM (inactive) in the experiment with OVCAR-3; 19.2 µM (inactive) with OVCAR-5; 25.9 µM (inactive) in the experiment with PC-3; 15.4 µM (inactive) with RXF 393; 7.6 µM (inactive) with SK-MEL-2; 17.1 µM (inactive) with SNB-75. The GI50 in the experiment on U-251 is 17.3 µM (inactive).
As for `O=C1c2ccccc2C(=O)c2nc(-c3ccccc3)c(-c3ccccc3)nc21`, the GI50 in the experiment with A549 was 22.8 µM (inactive); with CAKI-1 it was > 100 µM (inactive); in the experiment with DMS-273, 33.7 µM (inactive); in the experiment on EKVX it was > 100 µM (inactive); with HCC 2998, > 100 µM (inactive); in the experiment with HCT-15, more than 88.1 µM. For the same compound, the GI50 is 20.3 µM (inactive) in the experiment on HOP-92; 8.04 µM (inactive) in the experiment on LOX IMVI; 5.69 µM (inactive) with M14; 5.83 µM (inactive) in the experiment on NCI-H460; 2.58 µM (inactive) in the experiment on OVCAR-3; > 100 µM (inactive) in the experiment on OVCAR-5. Moreover, the GI50 in the experiment on RXF 393 was > 43.5 µM (inactive); in the experiment with SK-MEL-2, 10.8 µM (inactive); with SNB-75, 8.15 µM (inactive); in the experiment on U-251, > 67 µM (inactive).
As to `CN(C)C(=S)Nc1nnc(Nc2ccccc2)s1`, the GI50 with A549 is > 100 µM (inactive); in the experiment on CAKI-1, > 100 µM (inactive); with DMS-273 it was > 100 µM (inactive); with EKVX, > 100 µM (inactive); with HCC 2998 it was > 100 µM (inactive); in the experiment on HCT-15, more than 100 µM. The GI50 in the experiment on HOP-92, in the experiment with LOX IMVI, in the experiment on M14, in the experiment on NCI-H460, in the experiment with OVCAR-3 and in the experiment on OVCAR-5 was > 100 µM (inactive) each time. Also, the GI50 with RXF 393, with SK-MEL-2, in the experiment on SNB-75 and in the experiment with U-251 was > 100 µM (inactive) in each case.
As for `CCCCN(Cc1ccccc1)/C(=N/C#N)N(Cc1ccccc1)Cc1ccccc1`, the GI50 was 13.4 µM (inactive) in the experiment on A549; 19.2 µM (inactive) with BT-549; 10 µM (inactive) in the experiment with CAKI-1; 16.6 µM (inactive) in the experiment with DMS-273; 31.3 µM (inactive) in the experiment on EKVX; 26.5 µM (inactive) in the experiment on HCC 2998. Further, the GI50 was 14.4 µM with HCT-15; 11.4 µM (inactive) in the experiment with HOP-92; 23.4 µM (inactive) with Hs-578T; 10.9 µM (inactive) in the experiment on LOX IMVI; 12.8 µM (inactive) in the experiment with M14; 16.1 µM (inactive) in the experiment on MCF7. In addition, the GI50 in the experiment on NCI-H460 is 9.84 µM (inactive); in the experiment on OVCAR-3 it was 4.3 µM (inactive); with OVCAR-5, 27 µM (inactive); in the experiment on PC-3, 6.71 µM (inactive); in the experiment with RXF 393, 17.3 µM (inactive); in the experiment with SK-MEL-2 it was 13.1 µM (inactive). Moreover, the GI50 is 21.1 µM (inactive) with SNB-75 and 17.1 µM (inactive) in the experiment with U-251.
`CC1(C)C(=O)N(c2ccccc2)C(=O)N1c1nc2ccccc2[nH]1`: the GI50 with A549 was > 100 µM (inactive); in the experiment with CAKI-1 it was > 100 µM (inactive); in the experiment on DMS-273, > 100 µM (inactive); with EKVX it was > 100 µM (inactive); in the experiment on HCC 2998, > 100 µM (inactive); with HCT-15 it was 94.2 µM. Also, the GI50 was > 100 µM (inactive) in the experiment with HOP-92; 85.9 µM (inactive) with LOX IMVI; > 100 µM (inactive) in the experiment on M14; 71.9 µM (inactive) in the experiment with NCI-H460; > 100 µM (inactive) in the experiment on OVCAR-3; > 100 µM (inactive) in the experiment on OVCAR-5. Also, the GI50 in the experiment with RXF 393, in the experiment with SK-MEL-2 and in the experiment with SNB-75 was > 100 µM (inactive) each time.
On to `CCC/C(=N\NC(=S)N1CCN(c2ccccn2)CC1)c1ccccn1`, for which the GI50 was 0.118 µM (active) with A549; 0.0212 µM (active) in the experiment on BT-549; 0.179 µM (active) in the experiment with CAKI-1; 0.00117 µM (active) in the experiment on DMS-273; 0.00729 µM (active) in the experiment on EKVX; 0.0594 µM (active) in the experiment with HCC 2998. The GI50 in the experiment on HCT-15 is 0.00528 µM; in the experiment on HOP-92, 0.233 µM (active); in the experiment with Hs-578T, 0.213 µM (active); in the experiment with LOX IMVI, 0.0258 µM (active); in the experiment with MCF7 it was 0.00457 µM (active); with NCI-H460, 0.0362 µM (active). Also, the GI50 with OVCAR-3 was 0.0325 µM (active); with OVCAR-5, 0.61 µM (active); in the experiment with PC-3, 0.0152 µM (active); with RXF 393, 0.269 µM (active); in the experiment on SK-MEL-2, 0.115 µM (active); in the experiment with U-251, 0.00312 µM (active).

The values above are taken from ChEMBL document CHEMBL1201862, “PubChem BioAssay data set” (2004).
